Test results as given in US20210392890A1, “COMPOSITIONS COMPRISING PYRIDINE CARBOXYLATE HERBICIDES AND PLANT GROWTH REGULATORS” (Corteva Agriscience LLC, priority 2018, published 2021).
“And” between values parts separate entries of the source, which are not always exact repeats. Equal entries are not always repeated.

Experiments:
Type in all cases: in vivo
[1] = test system: Polygonum convolvulus (wild buckwheat); test: Greenhouse postemergence herbicidal effect on POLCO; conditions: for Herbicidal Effects (% visual injury) POLCO Obs: Ethephon 0 g/ha
From the text: (§1) Seeds of the desired test plant species were planted in a 90:10% v/v (volume/volume) mixture of PRO-MIX® BX (Premier Tech Horticulture, Quakertown, Pa., USA) and PROFILE® GREENS GRADE™ (Profile Products LLC, Buffalo Grove, Ill., USA) planting mixture, which typically has a pH of 5.2 to 6.2 and an organic matter content of at least 50 percent, in plastic pots with a surface area of 103.2 square centimeters (cm^2). In some aspects, to help ensure good germination and healthy plants, a fungicide treatment and/or other chemical or physical treatment was applied. The plants were grown for 7-36 days (d) in a greenhouse with an approximate 14-hour (h) photoperiod which was maintained at about 23° C. during the day and 22° C. during the night. Nutrients and water were added on a regular basis and supplemental lighting was provided with overhead metal halide 1000-Watt lamps as necessary. The plants were employed for testing when they reached the second or third true leaf stage.
Emulsifiable concentrates of each of each pyridine carboxylate herbicide (Compound A or Compound B) were prepared at 100 grams acid equivalent per liter (g ae/L). The emulsifiable concentrates also included a safener, cloquintocet-mexyl, at 120 grams active ingredient per liter (g ai/L). An aliquot of each emulsifiable concentrate was placed in a 25 mL glass vial and diluted with an aqueous mixture of 1.25% (v/v) ACTIROB® B esterified rapeseed oil (Bayer Crop Science, Research Triangle Park, N.C., USA) or MSO® Concentrate with LECI-TECH® methylated soybean oil (Loveland Products, Loveland, Colo., USA) to obtain concentrated stock solutions at the highest application rate for each herbicide, based upon a 12 milliliter (mL) application volume at a rate of 187 liters per hectare (L/ha). The concentrated stock solutions were further diluted with an aqueous mixture of 1.25% v/v ACTIROB® B or MSO® Concentrate with LECI-TECH® to obtain stock solutions at reduced application rates for each herbicide. Spray solutions of the herbicide combinations (Compound A or Compound B plus the PGR) were prepared by adding weighed amounts or aliquots of the PGR to the stock solutions of Compound A or Compound B to form 12-mL spray solutions in two-way combinations.
The spray solutions were applied to the plant material with an overhead Mandel track sprayer equipped with 8002E nozzles calibrated to deliver 187 L/ha over an application area of 0.503 square meters (m^2) at a spray height of 18 inches (43 centimeters (cm)) above the average plant canopy. Control plants were sprayed in the same manner with the solvent blank. All pyridine carboxylate herbicide (component a) application rates are given as “g ae/ha” and all PGR (component b) application rates are given as “g ai/ha.”
(§2) The treated plants and control plants were placed in a greenhouse as described above and watered by sub-irrigation to prevent wash-off of the test compounds. After 20-22 d, the condition of the test plants as compared with that of the control plants was determined visually and scored on a scale of 0 to 100 percent where 0 corresponds to no injury and 100 corresponds to complete kill.

[2] = test system: Salsola kali (Russian thistle); test: Greenhouse postemergence herbicidal effect on SASKR
From the text: as §1
(§3) Emulsifiable concentrates of each of each pyridine carboxylate herbicide (Compound A or Compound B) were prepared at 100 grams acid equivalent per liter (g ae/L). The emulsifiable concentrates also included a safener, cloquintocet-mexyl, at 120 grams active ingredient per liter (g ai/L). […]
as §2

[3] = test system: Cyanus segetum (cornflower); test: Greenhouse postemergence herbicidal effect on CENCY
From the text: as §1, §3, §2

[4] = test system: Viola arvensis (field violet); test: Greenhouse postemergence herbicidal effect on VIOAR
From the text: as §1, §3, §2

[5] = test system: Matricaria discoidea (pineapple weed); test: Greenhouse postemergence herbicidal effect on MATMT
From the text: as §1, §3, §2

N#CCOC(=O)c1nc(-c2ccc3cc[nH]c3c2F)c(F)c(N)c1Cl [Compound A, cyanomethyl 4-amino-3-chloro-5-fluoro-6-(7-fluoro-1H-indol-6-yl)pyridine-2-carboxylate]
Herbicidal Effects (% visual injury) POLCO Obs ([1]; Compound A 7.5 g/ha): 100% | Herbicidal Effects (% visual injury) POLCO Obs ([1]; Compound A 10 g/ha): 100% | % visual injury Obs ([1]; herbicide 7.5 g ae/ha alone): 68% and 83% and 65% | % visual injury Obs ([1]; herbicide 10 g ae/ha alone): 70% and 93% and 78% | % visual injury Obs ([1]; herbicide 15 g ae/ha alone): 85% | % visual injury Obs ([2]; herbicide 7.5 g ae/ha alone): 50% | % visual injury Obs ([2]; herbicide 10 g ae/ha alone): 60% | % visual injury Obs ([2]; herbicide 15 g ae/ha alone): 63% | % visual injury Obs ([3]; herbicide 7.5 g ae/ha alone): 75% | % visual injury Obs ([3]; herbicide 10 g ae/ha alone): 78% | % visual injury Obs ([3]; herbicide 15 g ae/ha alone): 80% | % visual injury Obs ([4]; herbicide 7.5 g ae/ha alone): 10% | % visual injury Obs ([4]; herbicide 10 g ae/ha alone): 13% | % visual injury Obs ([4]; herbicide 15 g ae/ha alone): 10% | % visual injury Obs ([5]; herbicide 7.5 g ae/ha alone): 20% | % visual injury Obs ([5]; herbicide 10 g ae/ha alone): 20% | % visual injury Obs ([5]; herbicide 15 g ae/ha alone): 63%
